Consider 75 compounds from patent publication US20190223437A1, “ACTIVE COMPOUND COMBINATIONS COMPRISING A 5-SUBSTITUTED IMIDAZOLE DERIVATIVE” (BAYER CROPSCIENCE AKTIENGESELLSCHAFT, priority 2016, published 2019).

Marks after values point to notes of the source that are not given here.

A short description of the series: Measurement of Log P values by HPLC on reversed phase columns (EEC directive 79/831 Annex V.A8). The format is physicochemical. The conditions noted are these: for chromatographic logP: reversed phase HPLC column, method [a]: LC-UV, acidic range, 0.1% formic acid in water and acetonitrile as eluent, Table 1, compounds of formula (I).

On to `Cc1cccc(CC(O)(Cn2cncc2Cl)C2(Cl)CC2)c1F` (stereo not drawn) [Example I-143], for which the LogP was 2.35^[a].
Regarding `OC(Cc1ccccc1)(Cn1cncc1Cl)C1(Cl)CC1` (racemic) [Example I-39], the LogP is 2.04^[a].
With `OC(Cc1ccc(Cl)cc1F)(Cn1cncc1Br)C1(Cl)CC1` (stereo not drawn) [Example I-30], the LogP was 2.55^[a].
For the compound `N#Cc1cncn1CC(O)(Cc1cc(Cl)cc(Cl)c1)C1(Cl)CC1` (racemic) [Example I-58], the LogP is 3.55^[a].
The same measure, in the same setting: to `OC(Cc1ccc(Br)cc1F)(Cn1cncc1Cl)C1(Cl)CC1` (racemic) [Example I-44] belongs 2.64^[a]; to `N#Cc1cncn1CC(O)(Cc1cccc(Cl)c1Cl)C1(Cl)CC1` (racemic) [Example I-49], 3.25^[a].
For the compound `N#Cc1cncn1CC(O)(Cc1ccnc(Cl)c1)C1(Cl)CC1` (racemic) [Example I-62], the LogP is 2.04^[a].
Same read-out and setting: to `OC(Cc1cccnc1Cl)(Cn1cncc1Br)C1(Cl)CC1` (stereo not drawn) [Example I-25] belongs 1.56^[a].
On to `NC(=O)c1cncn1CC(O)(Cc1ccc(Cl)cc1F)C1CC1` (stereo not drawn) [Example I-116], for which the LogP is 1.49^[a].
Same read-out and setting: to `OC(Cc1ccccc1C(F)(F)F)(Cn1cncc1Cl)C1(Cl)CC1` (racemic) [Example I-89] belongs 2.62^[a].
Same read-out and setting: to `OC(Cc1ccccc1Cl)(Cn1cncc1Br)C1(Cl)CC1` (stereo not drawn) [Example I-04] belongs 2.27^[a].
The same measure, in the same setting: to `N#Cc1cncn1CC(O)(Cc1ccc(Cl)cc1)C1(Cl)CC1` (racemic) [Example I-64] belongs 3.10^[a]; to `OC(Cc1ccccc1Cl)(Cn1cncc1I)C1(Cl)CC1` (stereo not drawn) [Example I-14], 2.14^[a]; to `N#Cc1cncn1CC(O)(Cc1cccc(F)c1F)C1CCC1` (stereo not drawn) [Example I-148], 2.57^[a].
Turning to `CCOC(Cc1ccc(Cl)cc1F)(Cn1cncc1Cl)C1(Cl)CC1` (stereo not drawn) [Example I-122], the LogP was 3.10^[a].
On the same count and under the same terms, to `OC(Cc1ccncc1F)(Cn1cncc1Cl)C1(Cl)CC1` (stereo not drawn) [Example I-164] belongs 1.46^[a]; to `CC(C)C(O)(Cc1cccc(F)c1F)Cn1cncc1C#N` (stereo not drawn) [Example I-149], 2.47^[a].
Same read-out and setting: next, `CC(C)C(O)(Cc1ccc(F)cc1)Cn1cncc1C#N` (stereo not drawn) [Example I-162]: 2.44^[a]; `CC(C)C(O)(Cc1ccccc1Cl)Cn1cncc1C#N` (racemic) [Example I-82]: 2.67^[a].
On to `OC(Cc1ccnc(Cl)c1Cl)(Cn1cncc1Cl)C1(Cl)CC1` (racemic) [Example I-67], for which the LogP is 2.08^[a].
On the same count and under the same terms, to `CC1(C(O)(Cc2ccccc2Cl)Cn2cncc2C#N)CC1` (racemic) [Example I-79] belongs 2.87^[a]; to `N#Cc1cncn1CC(O)(Cc1cccc(Cl)c1Cl)C1CCC1` (racemic) [Example I-85], 3.31^[a].
As a reminder, the chromatographic logP is lipophilicity estimated from chromatographic retention. Read a low chromatographic logP as a more hydrophilic compound. `N#Cc1cncn1C[C@@](O)(Cc1ccccc1F)C1(Cl)CC1` [Example I-133, 1-[(2S)-2-(1-chlorocyclopropyl)-3-(2-fluorophenyl)-2-hydroxypropyl]-1H-imidazole-5-carbonitrile] came in with a chromatographic logP of 2.59.
For the compound `CC(C)C(O)(Cc1ccc(F)cc1F)Cn1cncc1C#N` (stereo not drawn) [Example I-128], the LogP was 2.52^[a].
Still for that read-out and setting: to `CC(C)C(O)(Cc1ccccc1F)Cn1cncc1C#N` (stereo not drawn) [Example I-139] belongs 2.40^[a]; to `CCOC(=O)c1cncn1CC(O)(Cc1ccccc1F)C1(Cl)CC1` (stereo not drawn) [Example I-135], 2.73^[a]; to `N#CCc1cncn1CC(O)(Cc1ccccc1Cl)C1(Cl)CC1` (stereo not drawn) [Example I-21], 1.66^[a].
On to `N#Cc1cncn1CC(O)(Cc1ccc(F)cc1)C1(Cl)CCC1` (stereo not drawn) [Example I-159], for which the LogP is 2.98^[a].
On to `N#Cc1cncn1CC(O)(Cc1ccc(Br)cc1F)C1(Cl)CC1` (racemic) [Example I-42], for which the LogP was 3.24^[a].
Same read-out and setting: next, `N#Cc1cncn1CC(O)(Cc1ccccc1F)C1CCC1` (stereo not drawn) [Example I-137]: 2.46^[a].
Still for that read-out and setting: next, `N#Cc1cncn1CC(O)(Cc1ccc(F)cc1)C1CCC1` (stereo not drawn) [Example I-160]: 2.56^[a].
The same measure, in the same setting: to `O=C(Cc1ccccc1F)c1cncn1CC(O)(Cc1ccccc1F)C1(Cl)CC1` (stereo not drawn) [Example I-134] belongs 3.60^[a]; to `OC(Cc1ccnc(Cl)c1)(Cn1cncc1Cl)C1(Cl)CC1` (racemic) [Example I-75], 1.62^[a].
As to `N#Cc1cncn1CC(O)(Cc1ccc(Cl)cc1F)C1CCC1` (stereo not drawn) [Example I-117], the LogP is 3.13^[a].
On the same count and under the same terms, next, `CC(C)C(O)(Cc1ccc(Cl)cc1F)Cn1cncc1C#N` (stereo not drawn) [Example I-118]: 2.91^[a]; `OC(Cn1cncc1Cl)(C(F)c1ccccc1Cl)C1(Cl)CC1` (stereo not drawn) [Example I-05]: 2.17^[a].
Take `OC(Cc1ccccc1Cl)(Cn1cncc1F)C1(Cl)CC1` (stereo not drawn) [Example I-16]: the LogP is 1.94^[a].
As to `OC(Cc1ccccc1F)(Cn1cncc1Br)C1(Cl)CC1` (racemic) [Example I-33], the LogP was 2.10^[a].
The same measure, in the same setting: next, `N#Cc1cncn1CC(O)(Cc1ccncc1Cl)C1(Cl)CC1` (racemic) [Example I-57]: 1.88^[a]; `N#Cc1cncn1CC(O)(Cc1ccc(Oc2ccc(Cl)cc2)cc1Cl)C1(Cl)CC1` (racemic) [Example I-53]: 4.54^[a].
On the same count and under the same terms, next, `COC(Cc1ccc(Cl)cc1F)(Cn1cncc1C#N)C1CC1` (stereo not drawn) [Example I-121]: 3.31^[a]; `N#Cc1cncn1CC(O)(Cc1ccc(Br)cc1Cl)C1(Cl)CC1` (racemic) [Example I-41]: 3.52^[a]; `N#Cc1cncn1CC(O)(Cc1ccc(F)c(F)c1)C1(Cl)CC1` (stereo not drawn) [Example I-109]: 2.78^[a].
As for `N#Cc1cncn1CC(O)(Cc1ccnc(Cl)c1Cl)C1(Cl)CC1` (racemic) [Example I-50], the LogP is 2.47^[a].
Regarding `N#Cc1cncn1CC(O)(Cc1ccc(Cl)cc1F)C1(F)CC1` (racemic) [Example I-96], the LogP was 2.78^[a].
Still for that read-out and setting: next, `N#Cc1cncn1CC(O)(Cc1ccncc1C(F)(F)F)C1(Cl)CC1` (racemic) [Example I-92]: 2.18^[a]; `N#Cc1cncn1CC(O)(Cc1ccc(F)cc1)C1(F)CC1` (racemic) [Example I-100]: 2.35^[a]; `COc1ccccc1CC(O)(Cn1cncc1C#N)C1(Cl)CC1` (racemic) [Example I-55]: 2.93^[a].
As to `N#Cc1cncn1CC(O)(Cc1ccnc(Cl)c1F)C1(Cl)CC1` (stereo not drawn) [Example I-152], the LogP was 2.25^[a].
For the compound `N#Cc1cncn1CC(O)(Cc1cc(Br)ncc1Br)C1(Cl)CC1` (racemic) [Example I-47], the LogP was 2.73^[a].
Take `N#Cc1cncn1CC(O)(Cc1ccncc1Br)C1(Cl)CC1` (racemic) [Example I-46]: the LogP was 1.94^[a].
On the same count and under the same terms, next, `N#Cc1cncn1CC(O)(Cc1ccccc1Cl)C1CC1` (racemic) [Example I-80]: 2.57^[a].
Turning to `CC(C)(C)CC(O)(Cc1ccc(Cl)cc1)Cn1cncc1C#N` (racemic) [Example I-86], the LogP is 3.37^[a].
The same measure, in the same setting: next, `OC(Cc1cc(F)ncc1Cl)(Cn1cncc1Cl)C1(Cl)CC1` (stereo not drawn) [Example I-18]: 2.01^[a]; `OC(Cc1cccc(F)c1F)(Cn1cncc1Cl)C1(Cl)CC1` (stereo not drawn) [Example I-147]: 2.17^[a].
Same read-out and setting: to `OC(Cc1ccncc1Cl)(Cn1cncc1Cl)C1(Cl)CC1` (racemic) [Example I-72] belongs 1.52^[a]; to `Cc1cc(F)ccc1CC(O)(Cn1cncc1Cl)C1(Cl)CC1` (stereo not drawn) [Example I-155], 2.46^[a].
Still for that read-out and setting: next, `OC(Cc1c(Cl)ccnc1Cl)(Cn1cncc1Cl)C1(Cl)CC1` (stereo not drawn) [Example I-11]: 2.02^[a]; `N#Cc1cncn1CC(O)(Cc1ccc(F)cc1Cl)C1(Cl)CC1` (stereo not drawn) [Example I-154]: 3.00^[a].
In the case of `Cc1ccc(CC(O)(Cn2cncc2Cl)C2(Cl)CC2)c(F)c1` (stereo not drawn) [Example I-108], the LogP was 2.34^[a].
On the same count and under the same terms, next, `OC(Cc1ccc(F)c(F)c1)(Cn1cncc1Cl)C1(Cl)CC1` (stereo not drawn) [Example I-110]: 2.23^[a].
Take `N#Cc1cncn1CC(O)(Cc1cc(F)ncc1Cl)C1(Cl)CC1` (stereo not drawn) [Example I-165]: the LogP was 2.38^[a].
Same read-out and setting: next, `Nc1cncn1CC(O)(Cc1ccccc1Cl)C1(Cl)CC1` (racemic) [Example I-78]: 1.50^[a]; `N#Cc1cncn1CC(O)(Cc1ccc(F)cc1)C1CCCC1` (stereo not drawn) [Example I-161]: 2.82^[a].
With `N#Cc1cncn1C[C@](O)(Cc1ccccc1F)C1(Cl)CC1` [Example I-132, 1-[(2R)-2-(1-chlorocyclopropyl)-3-(2-fluorophenyl)-2-hydroxypropyl]-1H-imidazole-5-carbonitrile], the chromatographic logP amounted to 2.59.
Regarding `COC(=O)c1cncn1CC(O)(Cc1ccccc1Cl)C1(Cl)CC1` (stereo not drawn) [Example I-01], the LogP is 2.82^[a].
On the same count and under the same terms, next, `N#Cc1cncn1CC(O)(Cc1cccnc1Cl)C1(Cl)CC1` (stereo not drawn) [Example I-26]: 2.01^[a]; `N#Cc1cncn1CC(O)(Cc1ccc(F)cc1)C1(Cl)CC1` (stereo not drawn) [Example I-157]: 2.75^[a]; `OC(Cc1ccccc1F)(Cn1cncc1C1CC1)C1(Cl)CC1` (racemic) [Example I-37]: 1.86^[a].
For the compound `OC(Cc1cc(Cl)nc(Cl)c1)(Cn1cncc1Cl)C1(Cl)CC1` (racemic) [Example I-74], the LogP was 2.23^[a].
Take `N#Cc1cncn1CC(O)(Cc1ccncc1F)C1(Cl)CC1` (stereo not drawn) [Example I-163]: the LogP is 1.62^[a].
As to `CC(C)(C)C(O)(Cc1ccccc1F)Cn1cncc1C#N` (stereo not drawn) [Example I-138], the LogP is 2.73^[a].
Same read-out and setting: to `Cc1ccccc1CC(O)(Cn1cncc1Cl)C1(Cl)CC1` (racemic) [Example I-71] belongs 2.33^[a]; to `C#Cc1cncn1CC(O)(Cc1ccccc1Cl)C1(Cl)CC1` (racemic) [Example I-38], 2.09^[a]; to `C#Cc1cncn1CC(O)(Cc1ccccc1F)C1(Cl)CC1` (racemic) [Example I-36], 1.89^[a].
